In one test the test system is DLD-1 cells. In words: Apoptosis detection by flow cytometry, Annexin V & IP. Type of test: cell-based, human. Particulars: DLD-1, 7 hours treatment. On the procedure:
Cell death was analysed by flow cytometry using de Aposcreen Annexin V Apoptosis Kit (Southern Biotech) according to manufacturer procedures. Cells were seeded at 4×10^5 cells per well in six-well. Twenty-four hours later, cells were treated with the indicated compounds. Cells were rinsed twice in cold PBS and after removing it cells were resuspended in cold 1× binding buffer to a concentration from 1×10^6 to 1×10^7 cells/mL. 100 μl of these cells were collected in a flow cytometry tube and 10 μl of Annexin V were added. After gently vortexing, tubes were incubated for 15 minutes on ice, protected from light. Without washing, 380 μl of 1× binding buffer were added to each sample prior to 10 μl of propidium iodine. Cells were immediately analysed by flow cytometry.
The synergism observed in vitro was also analysed by flow cytometry using Annexin V & IP staining to distinguish between apoptosis and necrosis or late apoptosis. […] When DLD-1 cells are treated with TRAIL alone there is a 35% of apoptosis. In combination tumour cell death is amplified up to 50%. When DLD-1 are treated with RSM-932A (TCD-717) in combination with TRAIL there is a 55% increase in tumour cell death but mainly the necrotic or late apoptosis population because RSM-932A (TCD-717) has an effect that is faster than MN58. […]
(Flow cytometry measures light scatter and fluorescence of single cells or particles in a stream.)

For another test, the system named is H460 xenografts. In words: NSCLC xenografts, in vivo tumor growth inhibition. Particulars: FIG. 7A, single agents. On the procedure:
Indicated cells were resuspended in DMEM just before inoculation (10^6 cells/0.1 ml), and injected subcutaneously in nu/nu immunosuppressed mice. Mice were kept under standard laboratory conditions according to the guidelines of the Spanish Government. When tumours reached a mean volume of 0.1 cm^3, mice were randomized to control and treated groups. Treatments with the antitumoral agents (and vehicle for control mice) were performed i.p. with following the indicated schedules. Tumors were monitored three times a week by measuring the major (D) and minor (d) diameters, and tumour volume was calculated by V=(D*d^2)/2. Statistical analysis of significant changes in tumour growth was calculated using SPSS software v. 13.0.

For the next test, the system named is DLD-1 colon cancer cells. The test is described as follows: QT-PCR validation of 5-FU metabolization pathway genes. Type of test: cell-based, human. Set-up: key: DR (Down-regulation); UR (Up-regulation). On the procedure:
(§1) 1 μg of RNA was used to generate cDNA using High-Capacity cDNA Archive Kit (Applied Biosystems), and quantitative real-time PCR was carried out in triplicate using the ABI PRISM 7700 Sequence Detector (Applied Biosystems). GAPDH and 18S ribosomal mRNA were amplified as internal controls. Probes used for amplification were from Applied Biosystems as Taqman Gene Expression Assays (ASAH1: HS00602774—M1 Taqman Probe, ASAH2: HS00184096_M1 Taqman Probe and ASAH3: HS00370322_M1 Taqman Probe, DUT: HS00798995_S1 Taqman Probe, TYMS: HS00426591_M1 Taqman Probe, UPP1: HS00427695—M1 Taqman Probe, RRM2: HS00357247_G1 Taqman Probe). The 2-^ΔΔCt method was used (Livak K J., Methods. 2001; 25:402-8) to calculate the relative expression of each gene.

Another test concerns HT29 colon cancer cells. The test is described as above. Format: cell-based, human. Set-up: key: DR (Down-regulation); UR (Up-regulation). On the procedure:
as §1

For the next test, the system named is SW62 colon cancer cells. The description is as above. Format: cell-based, human. Set-up: key: DR (Down-regulation); UR (Up-regulation). On the procedure:
as §1

For test [1], the system named is DR5 (TNFRSF10B or TRAIL-R2) in DLD-1 cell line. In words: DR5 levels by quantitative PCR. Type of test: cell-based, human. On the procedure: as §1
(§2) TRAIL is a member of the tumour necrosis factor (TNF) superfamily and can induce apoptosis by the extrinsic pathway associated via stimulation of death receptors DR4 (TNFRSF10A or TRAIL-R1) and DR5 (TNFRSF10B or TRAIL-R2). In order to determine the mechanism of the effectivity of the combined therapy of TRAIL and ChoK inhibitors, DR5 and DR4 levels were analysed by quantitative PCR in DLD-1 and SW620 cell lines after treatments with MN58b, TRAIL or their simultaneous combination.

The subject of test [2] is DR5 (TNFRSF10B or TRAIL-R2) in SW620 cell line. The test is described as follows: DR5 levels by quantitative PCR. Format: cell-based, human. On the procedure: as §1, §2
The next test concerns H510 cells. The test is described as follows: Cell proliferation assay (MTT). Format: cell-based, human. On the procedure: (§3) All cell lines used in this study were maintained under standard conditions of temperature (37° C.), humidity (95%), and carbon dioxide (5%). Human primary bronchial epithelial cells, NHBE (BEC) (Cambrex, CC-2541) were grown in BEGM (Bronchial Epithelial cell growth media) BulletKit (Cambrex, CC-3170). Human primary mammary epithelial cells, HMEC (Clonetics, CC-2551) were grown in MEBM medium supplemented with a bullet kit (Clonetics, CC-3150). Epithelial non-small lung cancer cells H460 and H1299, and small cell lung cancer cell lines H510 and H82 were maintained in RPMI supplemented with 10% Fetal Bovine Serum (FBS) (Life Technologies, Grand Island, N.Y.).
(§4) Cells were seeded on 96-well plates (BD, Falcon, Bioscience, San Jose, Calif., USA) at a density of 6000 cells/well, and incubated for 24 h under standard conditions. […] Absorbance is read at 595 nm in a VersaMax Microplate Reader (Molecular Devices, Sunnyvale, Calif., USA). For sensitization with acid ceramidase inhibitor, cells were pre-treated 4 hours with the correspondent IC50 for NOE before treatment with ChoK inhibitors. NOE (N-Oleoyl ethanolamine) was obtained from Calbiochem (La Jolla, Calif., USA).

Another test deals with H1299 cells. In words: Cell proliferation assay (MTT). Format: cell-based, human. On the procedure: as §3, §4
The next test has as its system H82 cells. In words: Cell proliferation assay (MTT). Format: cell-based, human. On the procedure: as §3, §4

For the compound `CN(C)c1cc[n+](Cc2ccc(CCCCc3ccc(C[n+]4ccc(N(C)C)cc4)cc3)cc2)cc1` [MN58b, 1,4-(4-4′-Bis-((4-(dimethylamine)pyridinium-1-yl)methyl)diphenyl)butane dibromide], in the test with DLD-1 cells, the apoptosis entry is recorded as “only a little increase in apoptosis”. Also, the “Statistical significance (p), tumour growth” value in the test on H460 xenografts is 0.09. Besides, in the test on DLD-1 colon cancer cells, the TYM expression entry is reported as “DR” and the UPP expression entry is reported as “UR”. In the test with HT29 colon cancer cells, the DUT expression result was “DR”, the RRM expression result is reported as “DR” and the TYM expression entry is reported as “DR”. Besides, in the test on SW62 colon cancer cells, the RRM expression entry is given as “DR”, the TYM expression entry is listed as “DR” and the UPP expression result is “UR”. Further, in [1], the “increase in DR5 levels” value came to 1.6 fold. For the same compound, the “increase in DR5 levels” value in test [2] was 2 fold. In the test with H510 cells, the “figure in parentheses after IC50 48 h (not defined; fold vs primary cells)” value amounted to 41, the “figure in parentheses after IC50 72 h (not defined; fold vs primary cells)” value stood at 53 and the “figure in parentheses after IC50 144 h (not defined; fold vs primary cells)” value was 27. Further, in the test with H1299 cells, the “figure in parentheses after IC50 48 h (not defined; fold vs primary cells)” value came to 4, the “figure in parentheses after IC50 72 h (not defined; fold vs primary cells)” value was determined as 8 and the “figure in parentheses after IC50 144 h (not defined; fold vs primary cells)” value turned out to be 4. Besides, in the test with H82 cells, the “figure in parentheses after IC50 48 h (not defined; fold vs primary cells)” value is on record as 24, the “figure in parentheses after IC50 72 h (not defined; fold vs primary cells)” value is reported as 27 and the “figure in parentheses after IC50 144 h (not defined; fold vs primary cells)” value amounted to 12.

For the origin of these results see patent US20110256241A1, “METHODS AND COMPOSITIONS FOR THE TREATMENT OF CANCER” (TRASLATIONAL CANCER DRUGS PHARMA, S.L., priority 2008, published 2011).
